Columns and labels:
[1] = system: pET3a-THI0 E. coli lysate (truncated Bay 12:0-ACP thioesterase); assay: Acyl-ACP hydrolysis by lysate of E. coli expressing truncated Bay thioesterase cDNA; type: biochemical, Umbellularia californica; settings: 1 hour induction with 1mM IPTG
Experimental: (§1) To assay for C12 thioesterase activity the following mixture is incubated at 30° for 30 min: "buffer" comprising 7mM KH2PO4-KOH pH 8, 20% v/v glycerol, 1mM dithiothreitol (DTT), 0.1% v/v Triton X100; sample to be tested for activity in the same or similar buffer as the "extraction buffer" described in Example 2; and 5µl of ^14C-radiolabeled lauroyl-ACP substrate for a total volume of 100µl and final lauroyl-ACP concentration of 0.5µM. Lauroyl-ACP substrate is prepared according to the method of Rock et al (Methods in Enzymology (1981) 72:397-403), using ACP prepared from Escherichia coli by the method of Rock and Cronan (Methods in Enzymology (1981) 71:341-351). The laurate is radiolabeled in the carboxylate group at a specific radioactivity of 50-60µCi/µmol.
(§2) The reaction is stopped by adding 0.5ml cold (0°) 10% v/v acetic acid. The fatty acid product of the hydrolytic enzyme action is extracted away from the unhydrolyzed substrate by adding 1ml diethyl ether and mixing vigorously. After settling for a few minutes the upper ether layer is transferred to 5ml scintillation fluid for determination of radioactivity by liquid scintillation spectrometry. Additional ether extractions may be performed to recover remaining traces of the reaction product for more accurate quantitation of the enzyme activity if desired. The amount of ether-extracted radioactivity is a direct measure of C12-preferring acyl-ACP thioesterase activity, provided the amount of enzyme is not sufficient to hydrolyze more than about 25% of the substrate. With greater activity than this the relationship between radioactivity in the ether layer and the quantity of enzyme becomes markedly nonlinear. The enzyme preparation must then be diluted appropriately to bring the activity into the linear range of the assay.
(§3) A pET3a vector (Rosenberg, et al., Gene (1987) 56:125-135) is used in an E. coil strain BL21 (PE3) (Studier and Moffat, J. Mol. Biol. (1986) 189:113-130) host for this study. The pET3a vector contains a promoter and 33 bp of the 5' reading frame of bacteriophase T7. T7 polymerase is under the regulatory control of an isopropyl-b-D-thiogalactopyranoside (IPTG)-inducible lac UV5 promoter found in the E. coli BL21 (DE3) strain. Thus, by the addition of IPTG to E. coli BL21 (DE3) transformed with pET3a, the T7 promoter will be activated.
(§4) Constructs are prepared containing the truncated cDNA of Fig. 2 fused in reading frame by deletion of the BamHI/EcoRI fragment and replacement of the thioesterase sequence. E. coli are transformed with pET3a constructs containing the thioesterase (pET3a-THI0) and unmodified pET3a as a control. The E. coli are grown at 37°C in liquid medium and expression is induced by the addition of 1mM IPTG. […]

[2] = system: pET3a control E. coli lysate; assay: Acyl-ACP hydrolysis by control E. coli lysate (unmodified pET3a); type: biochemical; settings: 1 hour induction with 1mM IPTG
Experimental: as §1, §2, §3, §4

[3] = system: Bay seeds extractable C12-preferring acyl-ACP thioesterase and lauroyl-CoA hydrolysis activity; assay: Extractable hydrolysis activity at two stages of Bay seed development; type: biochemical, Umbellularia californica; settings: cpm ether-extractable radioactivity
Experimental: as §1, §2
Further evidence that the C12-preferring acyl-ACP thioesterase is involved in the biosynthesis of laurate groups that predominate in the Bay seeds comes from a comparison of the extractable activity of the enzyme at two different stages of seed development. As shown in the following table, Table 5, very young seeds, which contain only long-chain fatty acids and insignificant amounts of laurate, yield much less C12-preferring ACP thioesterase than older seeds that have accumulated significant amounts of laurate. Thus it appears that significant activity of this enzyme is only present when the seeds are accumulating laurate. Additionally, there appears to be much less difference in lauroyl-CoA hydrolysis activity, consistent with their being different enzymes as discussed above in Example 5.

pET3a-THI0 E. coli lysate (truncated Bay 12:0-ACP thioesterase), sequence (Q41635 143-382 limits assumed): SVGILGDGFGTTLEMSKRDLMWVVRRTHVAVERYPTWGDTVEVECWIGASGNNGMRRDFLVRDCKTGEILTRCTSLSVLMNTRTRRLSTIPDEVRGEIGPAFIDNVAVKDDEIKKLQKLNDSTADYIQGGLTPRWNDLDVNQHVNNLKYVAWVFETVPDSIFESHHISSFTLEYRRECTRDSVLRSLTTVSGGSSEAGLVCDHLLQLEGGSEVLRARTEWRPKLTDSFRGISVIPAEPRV

14:0-ACP
Hydrolysis Activity (mean cpm in ether extract) [1]: 1035 cpm
Hydrolysis Activity (mean cpm in ether extract) [2]: 1271 cpm

16:0-ACP
Hydrolysis Activity (mean cpm in ether extract) [1]: 1900 cpm
Hydrolysis Activity (mean cpm in ether extract) [2]: 2848 cpm

decanoyl-ACP [10:0-ACP]
Hydrolysis Activity (mean cpm in ether extract) [1]: 621 cpm
Hydrolysis Activity (mean cpm in ether extract) [2]: 787 cpm

lauroyl-ACP [12:0-ACP]
Hydrolysis / Thioesterase Activity In Assays ([3]; Normal Seeds (2g/cotyledon pair)): 4704 cpm
Hydrolysis / Thioesterase Activity In Assays ([3]; Young Seeds (0.5g/cotyledon pair)): 376 cpm
Hydrolysis Activity (mean cpm in ether extract) [1]: 2127 cpm
Hydrolysis Activity (mean cpm in ether extract) [2]: 1028 cpm

Reference: EP1298214A2, “Plant thioesterases” (Calgene LLC, priority 1990, dated 1991)
